Structures can show the parent of a compound that is named as a salt.
The compounds below were run on bacterial strains that express KPC β-lactamases (assay: Synergy MIC / standard BLI potentiation MIC assay, strains expressing KPC β-lactamases). Details: at least one KPC strain and/or better spectrum; in the presence of a β-lactam.
Format: cell-based
Procedure: The experimental protocol was performed according to Clinical and Laboratory Standards Institute (CLSI) guidelines with modifications as described below (CLSI guidelines can be derived from the CLSI document M07-A9 published in January 2012: “Methods for Dilution Antimicrobial Susceptibility Tests for Bacteria That Grow Aerobically; Approved Standard-Ninth Edition”).
To prepare for MIC testing, frozen glycerol stocks of clinical isolates (Klebsiella pneumoniae, Eschericia coli, Enterobacter spp, Citrobacter spp, or Pseudomonas aeruginosa) were used to streak for isolated colonies on rich, non-selective, tryptic soy agar containing 5% sheep's blood (TSAB). Frozen glycerol stocks of laboratory engineered, isogenic E. coli strains, which contain cloned β-lactamase expressing plasmids were used to streak for isolated colonies on rich, selective LB agar supplemented with 25 μg/mL tetracycline to maintain the plasmid. All strains were incubated at 37° C. for 18-24 hrs.
On the day of testing, primary cultures were started by scraping off 5-10 colonies from the TSAB plates containing clinical strains or the tetracycline supplemented LB plates containing engineered strains. The clinical strain material was suspended in ˜5 mL of cation adjusted Mueller Hinton Broth (CAMHB) in 14 mL culture tubes. The engineered strain material was suspended in CAMHB (supplemented with 25 μg/mL tetracycline) in 14 mL culture tubes. All strains were incubated at 37° C. with aeration (200 rpm) for ˜2 hrs until the optical density at 600 nm (OD600) was >0.1.
The two compound components of the assay were each diluted in CAMHB and added to the 96-well broth microdilution assay plates. 50 μL of the β-lactam was added to each well of the assay plate in 2-fold dilutions with final concentrations ranging from 128 to 0.13 μg/mL. 25 μL of the BLI compound was added to all wells in the broth microdilution plates at a final concentration of 4 μg/mL. Inoculum cultures were prepared by standardizing the primary cultures to OD600=0.1 and then adding 20 μL of the adjusted primary culture per 1 mL CAMHB for clinical strains or CAMHB (supplemented with tetracycline at 100 μg/mL) for engineered strains, so that the final inoculum density was ˜10^5 colony forming units per milliliter. Diluted inoculum cultures were used to inoculate 25 μl, per well in 96-well broth microdilution assay plates. The final volume of each well was 100 μL and contained a β-lactam at different concentrations, a BLI compound at 4 μg/mL concentration, the bacterial culture at an OD600 of approximately 0.001 and when necessary tetracycline at 25 μg/mL.
Plates were incubated for 18-20 hours at 37° C. with aeration (200 rpm). Following incubation, growth was confirmed visually placing plates over a viewing apparatus (stand with a mirror underneath) and then OD600 was measured using a SpectraMax 340PC384 plate reader (Molecular Devices, Sunnyvale, Calif.). Growth was defined as turbidity that could be detected with the naked eye or achieving minimum OD600 of 0.1. MIC values were defined as the lowest concentration producing no visible turbidity.
The synergy MIC (sMIC) assay determines the concentration of the BLI required to potentiate the activity of a fixed concentration of a β-lactam antibiotic against β-lactamase producing bacterial strains. The experimental protocol was performed according to Clinical and Laboratory Standards Institute (CLSI) guidelines with modifications as described below (CLSI guidelines can be derived from the CLSI document M07-A9 published in January 2012: “Methods for Dilution Antimicrobial Susceptibility Tests for Bacteria That Grow Aerobically; Approved Standard-Ninth Edition”). […]

Row | Compound | activity and/or spectrum of activity against bacterial strains that express KPC β-lactamases, compared with Avibactam
1 | N=C(N)NCC(O)c1cc([C@@H]2CC[C@@H]3CN2C(=O)N3OS(=O)(=O)O)no1 (single isomer, unassigned) [Compound 612, (2S,5R)-2-(5-((S*)-2-guanidino-1-hydroxyethyl)isoxazol-3-yl)-7-oxo-1,6-diazabicyclo[3.2.1]octan-6-yl hydrogen sulfate] | more active than Avibactam
2 | NCc1cc([C@@H]2CC[C@@H]3CN2C(=O)N3OS(=O)(=O)O)no1 [Compound 601, (2S,5R)-2-(5-(aminomethyl)isoxazol-3-yl)-7-oxo-1,6-diazabicyclo[3.2.1]octan-6-yl hydrogen sulfate] | more active than Avibactam
3 | NCCNC(=O)c1cc([C@@H]2CC[C@@H]3CN2C(=O)N3OS(=O)(=O)O)no1 [Compound 605, (2S,5R)-2-(5-((2-aminoethyl)carbamoyl)isoxazol-3-yl)-7-oxo-1,6-diazabicyclo[3.2.1]octan-6-yl hydrogen sulfate] | more active than Avibactam
4 | N=C(N)N1CCC(c2cc([C@@H]3CC[C@@H]4CN3C(=O)N4OS(=O)(=O)O)no2)CC1 [Compound 607, (2S,5R)-2-(5-(1-carbamimidoylpiperidin-4-yl)isoxazol-3-yl)-7-oxo-1,6-diazabicyclo[3.2.1]octan-6-yl hydrogen sulfate] | more active than Avibactam
5 | N=C(N)NCCNC(=O)c1cc([C@@H]2CC[C@@H]3CN2C(=O)N3OS(=O)(=O)O)no1 [Compound 608, (2S,5R)-2-(5-((2-guanidinoethyl)carbamoyl)isoxazol-3-yl)-7-oxo-1,6-diazabicyclo[3.2.1]octan-6-yl hydrogen sulfate] | more active than Avibactam
6 | O=C1N2C[C@@H](CC[C@H]2c2cc(CCNC3CCNCC3)on2)N1OS(=O)(=O)O [Compound 609, (2S,5R)-7-oxo-2-(5-(2-(piperidin-4-ylamino)ethyl)isoxazol-3-yl)-1,6-diazabicyclo[3.2.1]octan-6-yl hydrogen sulfate] | more active than Avibactam
7 | N=C(N)N1CCC(NCCc2cc([C@@H]3CC[C@@H]4CN3C(=O)N4OS(=O)(=O)O)no2)CC1 [Compound 610, (2S,5R)-2-(5-(2-((1-carbamimidoylpiperidin-4-yl)amino)ethyl)isoxazol-3-yl)-7-oxo-1,6-diazabicyclo[3.2.1]octan-6-yl hydrogen sulfate] | more active than Avibactam
8 | N=C(N)NC1(Cc2cc([C@@H]3CC[C@@H]4CN3C(=O)N4OS(=O)(=O)O)no2)CC1 [Compound 613, (2S,5R)-2-(5-((1-guanidinocyclopropyl)methyl)isoxazol-3-yl)-7-oxo-1,6-diazabicyclo[3.2.1]octan-6-yl hydrogen sulfate] | more active than Avibactam
9 | N=C(N)NCCCc1cc([C@@H]2CC[C@@H]3CN2C(=O)N3OS(=O)(=O)O)no1 [Compound 615, (2S,5R)-2-(5-(3-guanidinopropyl)isoxazol-3-yl)-7-oxo-1,6-diazabicyclo[3.2.1]octan-6-yl hydrogen sulfate] | more active than Avibactam
10 | N[C@H]1C[C@@H](c2cc([C@@H]3CC[C@@H]4CN3C(=O)N4OS(=O)(=O)O)no2)C1 [Compound 616, (2S,5R)-2-(5-((1s,3R)-3-aminocyclobutyl)isoxazol-3-yl)-7-oxo-1,6-diazabicyclo[3.2.1]octan-6-yl hydrogen sulfate] | more active than Avibactam
